In patent US10093650B2, “Tetrazolone-substituted dihydropyridinone MGAT2 inhibitors” (BRISTOL-MYERS SQUIBB COMPANY, priority 2014, dated 2018):

Each compound was assayed against human MGAT-2 (Homo sapiens (Human), UniProt Q3SYC2) (assay: MGAT LCMS Assay (human MGAT2)). Settings: human MGAT-2 membranes expressed in Sf9 cells; 100 μM 2-oleoylglycerol, 15 μM oleoyl-coenzyme A; LC/MS readout; read-out: h-MGAT LCMS IC50.
Assay type: biochemical
Procedure: The MGAT enzyme reactions were performed in Corning FALCON® 96-well polypropylene plates, in a total volume of 60 μL of 50 mM potassium phosphate buffer pH 7.4, containing a final concentration of 100 μM 2-oleoylglycerol, 15 μM oleoyl-coenzyme A and […] human or mouse MGAT-2 or […] rat recombinant MGAT-2 membranes expressed in Sf9 cells. Assay plates were run through a fully automated robotics system and shaken for 5 seconds every minute for a total 10 minutes. The reactions were then quenched with 120 μL of ice cold methanol containing 1 μg/mL 1,2-distearoyl-rac-glycerol as the internal standard. Plates were shaken for 2 minutes and spun down to remove protein precipitation. After the spin, samples were transferred to LC/MS compatible PCR plates. For LC/MS analysis, a ThermoFisher Surveyor pump, utilizing a Waters SYMMETRY® C8, 50×2.1 mm column, was used for the chromatography of enzyme products. The buffer system consists of 0.1% formic acid in water with a mobile phase consisting 0.1% formic acid in methanol. The shallow gradient is 90-100% mobile phase in 0.2 min with a total run time of 2.3 min. The first 0.5 minutes of each injection was diverted to waste to eliminate the presence of Phosphate buffer in the enzymatic reaction. The column was run at 0.6 mL/min and a temperature of 65° C. Mass spectrometry analysis of the samples was performed on a ThermoFisher Quantum Triple quad utilizing APCI (+) as the mode of ionization. Data was acquired in Single Ion Monitoring (SIM) mode analyzing Diolein=m/z 603.6 (PRODUCT) and 1,2-distearoyl-rac-glycerol (IS)=m/z 607.6. The ratio of Diolein to internal standard (Peak Area Ratio) is utilized to calculate IC50 values.
The exemplified Examples disclosed below were tested in the MGAT2 in vitro assays described above and were found having MGAT2 inhibitory activity. Table 1 below lists human MGAT2 IC50 values measured for the following examples.

Chain of human MGAT-2 (Q3SYC2 whole entry): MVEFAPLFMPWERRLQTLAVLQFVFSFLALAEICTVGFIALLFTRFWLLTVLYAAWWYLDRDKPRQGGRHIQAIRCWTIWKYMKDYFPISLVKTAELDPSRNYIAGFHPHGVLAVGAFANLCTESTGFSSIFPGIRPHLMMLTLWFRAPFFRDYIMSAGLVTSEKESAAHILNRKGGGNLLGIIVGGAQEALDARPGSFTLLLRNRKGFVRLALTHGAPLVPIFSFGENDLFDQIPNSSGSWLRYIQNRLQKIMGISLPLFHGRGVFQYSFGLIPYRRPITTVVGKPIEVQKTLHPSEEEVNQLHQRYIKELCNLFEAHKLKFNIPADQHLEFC

IC50 [nM]	Compound
5	Cc1ccc(C2=C(n3nn[nH]c3=O)C(=O)N[C@@](c3ccc(OCCCCCC(F)(F)F)cc3)(C(F)(F)F)C2)cc1 [Example 2]
340	COc1ccc(C2=C(n3nn[nH]c3=O)C(=O)N[C@@](c3ccc(OCCCC(F)(F)F)cc3)(C(F)(F)F)C2)cc1 [Example 3]
17	O=C1N[C@@](c2ccc(OCCCCCC(F)(F)F)cc2)(C(F)(F)F)CC(c2ccc(OC(F)F)cc2)=C1n1nn[nH]c1=O [Example 4]
71	COc1ccc(C2=C(n3nn[nH]c3=O)C(=O)N[C@@](c3ccc(OCCCCCC(F)(F)F)cc3)(C(F)(F)F)C2)cc1 [Example 5]
137	CC(C)n1ccc(C2=C(n3nn[nH]c3=O)C(=O)N[C@@](c3ccc(OCCCC(F)(F)F)cc3F)(C(F)(F)F)C2)n1 [Example 6]
173	O=C1N[C@@](c2ccc(OCCCC(F)(F)F)cc2F)(C(F)(F)F)CC(c2ccn(C3CC3)n2)=C1n1nn[nH]c1=O [Example 7]
30	O=C1N[C@@](c2ccc(OCCCC(F)(F)F)cc2F)(C(F)(F)F)CC(c2ccn(C3CCC3)n2)=C1n1nn[nH]c1=O [Example 8]
108	CCn1ccc(C2=C(n3nn[nH]c3=O)C(=O)N[C@@](c3ccc(OCCCC(F)(F)F)cc3F)(C(F)(F)F)C2)n1 [Example 9]
36	CC(C)n1ccc(C2=C(n3nn[nH]c3=O)C(=O)N[C@@](c3ccc(CCCCC(F)(F)F)cc3F)(C(F)(F)F)C2)n1 [Example 10]
9	O=C1N[C@@](c2ccc(CCCCC(F)(F)F)cc2F)(C(F)(F)F)CC(c2ccn(CC3CC3)n2)=C1n1nn[nH]c1=O [Example 11]
34	CC(C)Cn1ccc(C2=C(n3nn[nH]c3=O)C(=O)N[C@@](c3ccc(CCCCC(F)(F)F)cc3F)(C(F)(F)F)C2)n1 [Example 12]
84	CCn1ccc(C2=C(n3nn[nH]c3=O)C(=O)N[C@@](c3ccc(CCCCC(F)(F)F)cc3F)(C(F)(F)F)C2)n1 [Example 13]
5	O=C1N[C@@](c2ccc(OCCCC(F)(F)F)cc2F)(C(F)(F)F)CC(c2ccn(CC3CC3)n2)=C1n1nn[nH]c1=O [Example 14]
145	CC(C)Cn1ccc(C2=C(n3nn[nH]c3=O)C(=O)N[C@@](c3ccc(OCCCC(F)(F)F)cc3F)(C(F)(F)F)C2)n1 [Example 15]
5	O=C1N[C@@](c2cnn(CCCCCCC(F)(F)F)c2)(C(F)(F)F)CC(c2ccc3c(c2)CCCC3)=C1n1nn[nH]c1=O [Example 17]
8	CC(=O)c1ccc(C2=C(n3nn[nH]c3=O)C(=O)N[C@@](c3ccc(OCCCC(F)(F)F)cc3)(C(F)(F)F)C2)s1 [Example 18]
10	CC(O)c1ccc(C2=C(n3nn[nH]c3=O)C(=O)N[C@@](c3ccc(OCCCC(F)(F)F)cc3)(C(F)(F)F)C2)s1 (stereo partly shown) [Example 19]
3	O=C1N[C@@](c2ccc(CCCCC(F)(F)F)cc2)(C(F)(F)F)CC(c2ccn(CC3CC3)n2)=C1n1nn[nH]c1=O [Example 20]
10	O=C1N[C@@](c2ccc(OCCCC(F)(F)F)cc2F)(C(F)(F)F)CC(c2ccc(C(F)F)cc2)=C1n1nn[nH]c1=O [Example 21]
60	CCc1ccc(C2=C(n3nn[nH]c3=O)C(=O)N[C@@](c3ccc(OCCCC(F)(F)F)cc3)(C(F)(F)F)C2)s1 [Example 23]
36	CCc1ccc(C2=C(n3nn[nH]c3=O)C(=O)N[C@H](c3ccc(OCCCC(F)(F)F)cc3Cl)C2)s1 [Example 24]

Compound	IC50 [nM]
Cc1ccc(C2=C(n3nn[nH]c3=O)C(=O)N[C@@](c3ccc(OCCCC(F)(F)F)cc3)(C(F)(F)F)C2)cc1 [Example 1, (S)-3-(5-Oxo-4,5-dihydro-1H-tetrazol-1-yl)-4-(p-tolyl)-6-(4-(4,4,4-trifluorobutoxy)phenyl)-6-(trifluoromethyl)-5,6-dihydropyridin-2(1H)-one]	27
